Assay results published in US9096607B2, “Tumor necrosis factor inhibitors” (THE TRUSTEES OF THE UNIVERSITY OF PENNSYLVANIA, priority 2005, dated 2015).
Where a chain is given by its changes, count along the chain named.

What was measured:
[1] = target: T1, wild type TNF-R1 (Homo sapiens, UniProt P19438); experiment: Surface plasmon resonance, TNF-α binding to wild type TNF-R1; conditions: SPR
T1 construct: The ectodomain of wild type TNF receptor 1 was obtained by PCR from pKP13; made in house
T1 sequence (P19438 30-211 limits assumed): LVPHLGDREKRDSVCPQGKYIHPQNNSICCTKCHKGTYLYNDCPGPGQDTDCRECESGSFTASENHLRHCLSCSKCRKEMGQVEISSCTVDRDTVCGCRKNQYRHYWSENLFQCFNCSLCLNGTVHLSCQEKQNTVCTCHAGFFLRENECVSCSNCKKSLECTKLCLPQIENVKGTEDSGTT
Source text: (§1) Mutations of the TNF-R1 receptor were made at residues 82Q and 112F in the cavity, which were mutated to 82E and 112E respectively. The structural integrity of the mutant receptor was verified by ligand binding in surface plasmon resonance (SPR) studies. […] TNF-α retained the ability to bind to the mutant receptor, albeit with somewhat reduced affinity. These studies confirm that the test compound bound to a single and specific cavity on wild type TNF-R1.
(§2) Recombinant TNF receptor wild type and mutant were immobilized to the CM5 sensor chip with a surface density of 2,000 resonance units. The binding affinity of TNF-α to TNF-R1 was estimated by BiaCORE 3000 (BiaCORE, Uppsala, Sweden) at 25° C. The apparent rate constants (kon and koff) and the equilibrium binding constant (Kd) for TNF/TNF-R binding interaction were estimated from the kinetic analysis of sensorgrams, using the BIA evaluation 3.0 software (BiaCORE).

[2] = target: T2, mutant TNF-R1 (Homo sapiens, UniProt P19438, F141E/Q111E); experiment: Surface plasmon resonance, TNF-α binding to mutant TNF-R1; conditions: SPR, mutant TNF-R1 (82E, 112E)
T2 construct: The ectodomain of wild type TNF receptor 1 was obtained by PCR from pKP13; made in house
T2 sequence (P19438 30-211 Q111E/F141E limits assumed): T1 sequence (P19438 30-211 limits assumed) with Q82E, F112E
Source text: as §1, §2

- Kd [1]: 0.379 nM
- Kd [2]: 4650 nM
Substance: TNF-α
